Test [1] has as its target IRAK4 enzyme (Homo sapiens (Human), UniProt Q9NWZ3). Put plainly: biochemical. Format: biochemical. Particulars: IRAK4 enzyme, TR-FRET, 500 μM ATP.
The test system of test [2] is TNFα. Put plainly: cells. Conditions: Homo sapiens, Monocyte, LPS-stimulated human monocytes, TNFα content; read-out: EC50 TNF. Format: cell-based, human.

The source of these data is US10336762B2 (priority 2017, dated 2019).

The structures appear in SMILES notation. Bounds are passed on as bounds.

Chain of IRAK4 enzyme (Q9NWZ3 whole entry): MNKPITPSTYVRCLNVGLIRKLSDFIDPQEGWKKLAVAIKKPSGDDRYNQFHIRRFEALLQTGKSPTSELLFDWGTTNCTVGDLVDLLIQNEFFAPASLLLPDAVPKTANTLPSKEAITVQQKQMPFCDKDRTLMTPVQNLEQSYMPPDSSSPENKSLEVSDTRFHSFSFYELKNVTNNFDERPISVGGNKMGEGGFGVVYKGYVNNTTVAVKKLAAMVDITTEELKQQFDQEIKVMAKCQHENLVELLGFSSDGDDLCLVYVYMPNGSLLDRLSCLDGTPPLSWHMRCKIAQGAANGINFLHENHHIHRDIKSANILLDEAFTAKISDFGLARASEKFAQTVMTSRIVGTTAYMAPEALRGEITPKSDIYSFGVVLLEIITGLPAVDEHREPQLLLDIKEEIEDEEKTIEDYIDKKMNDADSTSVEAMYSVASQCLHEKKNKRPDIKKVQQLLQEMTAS

Consider `CC(=O)NC(C)(C)CCNC(=O)c1cnc(-c2ccc3cc(C#N)cnn23)cc1NC12CCC(O)(CC1)CC2` [Example 344, N-(3-acetamido-3-methylbutyl)-6-(3-cyanopyrrolo[1,2-b]pyridazin-7-yl)-4-((4-hydroxybicyclo[2.2.2]octan-1-yl)amino) nicotinamide], for which, in test [1], the 50% inhibitory concentration (IC50) was 2 nM. In addition, the EC50 in test [2] worked out at 48 nM.

`CC(C)(N)CCNC(=O)c1cnc(-c2ccc3cc(C#N)cnn23)cc1NC12CCC(O)(CC1)CC2` [Example 345, N-(3-amino-3-methylbutyl)-6-(3-cyanopyrrolo[1,2-b]pyridazin-7-yl)-4-((4-hydroxybicyclo[2.2.2]octan-1-yl)amino)nicotinamide] displayed a half-maximal inhibitory concentration (IC50) in test [1] of 1 nM. Besides, in test [2], the EC50 came to 116 nM.

Compound `N#Cc1cnn2c(-c3cc(NC45CCC(O)(CC4)CC5)c(C(=O)NCCC4CCCO4)cn3)ccc2c1` (stereo not shown) [Example 346, 6-(3-cyanopyrrolo[1,2-b]pyridazin-7-yl)-4-((4-hydroxybicyclo[2.2.2]octan-1-yl)amino)-N-(2-(tetrahydrofuran-2-yl)ethyl)nicotinamide] registered an IC50 in test [1] of 1 nM. In test [2], the concentration giving a half-maximal response (EC50) came out at 18 nM.

For `CC(C)(CCNC(=O)c1cnc(-c2ccc3cc(C#N)cnn23)cc1NC12CCC(O)(CC1)CC2)NC(=O)OC(C)(C)C` [Example 347, tert-butyl (4-(6-(3-cyanopyrrolo[1,2-b]pyridazin-7-yl)-4-((4-hydroxybicyclo[2.2.2]octan-1-yl)amino)nicotinamido)-2-methyl-butan-2-yl)carbamate], the IC50 in test [1] was found to be 2 nM. The concentration for a half-maximal effect (EC50) in test [2] came out at 45 nM.

The compound `N#CCNC(=O)c1cnc(-c2ccc3cc(C#N)cnn23)cc1NC12CCC(O)(CC1)CC2` [Example 348, N-(cyanomethyl)-6-(3-cyanopyrrolo[1,2-b]pyridazin-7-yl)-4-((4-hydroxybicyclo[2.2.2]octan-1-yl)amino) nicotinamide] registered a half-inhibitory concentration (IC50) in test [1] below 1 nM. The EC50 in test [2] was 19 nM.

`CC(C)(O)[C@H](F)CNC(=O)c1cnc(-c2ccc3cc(C#N)cnn23)cc1Nc1ccc(C(=O)N2CCC2)cc1` [Example 349, (R)-4-((4-(azetidine-1-carbonyl)phenyl)amino)-6-(3-cyanopyrrolo[1,2-b]pyridazin-7-yl)-N-(2-fluoro-3-hydroxy-3-methylbutyl)nicotinamide] registered an IC50 in test [1] of 1 nM. In test [2], the EC50 is 77 nM.

In test [1], `CNC(=O)c1ccc(Nc2cc(-c3ccc4cc(C#N)cnn34)ncc2C(=O)NC[C@@H](F)C(C)(C)O)cc1` [Example 350, (R)-6-(3-cyanopyrrolo[1,2-b]pyridazin-7-yl)-N-(2-fluoro-3-hydroxy-3-methylbutyl)-4-((4-(methylcarbamoyl)phenyl)amino)nicotinamide] showed an IC50 below 1 nM. Besides, the EC50 in test [2] amounted to 12 nM.

In turn, `CNC(=O)O[C@H]1C[C@@H](Nc2cc(-c3ccc4cc(C#N)cnn34)ncc2C(=O)NC[C@@H](F)C(C)(C)O)C1` [Example 351, (1S,3S)-3-((2-(3-cyanopyrrolo[1,2-b]pyridazin-7-yl)-5-(((R)-2-fluoro-3-hydroxy-3-methylbutyl)carbamoyl)pyridin-4-yl)amino)cyclobutyl methylcarbamate] yielded a 50% inhibitory concentration (IC50) in test [1] of 2 nM. For the same compound, the EC50 in test [2] is 120 nM.

`N#CCCNC(=O)c1cnc(-c2ccc3cc(C#N)cnn23)cc1NC12CCC(O)(CC1)CC2` [Example 352, N-(2-cyanoethyl)-6-(3-cyanopyrrolo[1,2-b]pyridazin-7-yl)-4-((4-hydroxybicyclo[2.2.2]octan-1-yl)amino) nicotinamide] had a half-inhibitory concentration (IC50) in test [1] of 1 nM. Also, the EC50 in test [2] is 76 nM.

In test [1], `CC(C)(F)[C@H](F)CNC(=O)c1cnc(-c2ccc3cc(C#N)cnn23)cc1NC12CCC(O)(CC1)CC2` [Example 353, (R)-6-(3-cyanopyrrolo[1,2-b]pyridazin-7-yl)-N-(2,3-difluoro-3-methylbutyl)-4-((4-hydroxybicyclo[2.2.2]octan-1-yl)amino) nicotinamide] returned a concentration for half-maximal inhibition (IC50) below 1 nM. The EC50 in test [2] was found to be 16 nM.

Consider `COC(C)(C)[C@H](F)CNC(=O)c1cnc(-c2ccc3cc(C#N)cnn23)cc1NC12CCC(O)(CC1)CC2` [Example 354, (R)-6-(3-cyanopyrrolo[1,2-b]pyridazin-7-yl)-N-(2-fluoro-3-methoxy-3-methylbutyl)-4-((4-hydroxybicyclo[2.2.2]octan-1-yl)amino) nicotinamide], for which the IC50 in test [1] was below 1 nM. Moreover, the EC50 in test [2] is 19 nM.

The compound `CC(C)(O)CCNC(=O)c1cnc(-c2ccc3cc(C#N)cnn23)cc1NC12CCC(O)(CC1)CC2` [Example 355, 6-(3-cyanopyrrolo[1,2-b]pyridazin-7-yl)-N-(3-hydroxy-3-methylbutyl)-4-((4-hydroxy-bicyclo[2.2.2]octan-1-yl)amino)nicotinamide] showed an IC50 in test [1] below 1 nM. The concentration for a half-maximal effect (EC50) in test [2] was determined as 23 nM.

Take `CNC(=O)O[C@H]1C[C@@](C)(Nc2cc(-c3ccc4cc(C#N)cnn34)ncc2C(=O)NC[C@@H](F)C(C)(C)O)C1` [Example 356]: the IC50 in test [1] was found to be 6 nM. Also, in test [2], the concentration giving a half-maximal response (EC50) was 800 nM.

Take `CC(C)(C)NC(=O)c1cnc(-c2ccc3cc(C#N)cnn23)cc1NC12CCC(O)(CC1)CC2` [Example 357, N-(tert-butyl)-6-(3-cyano-pyrrolo[1,2-b]pyridazin-7-yl)-4-((4-hydroxy-bicyclo[2.2.2]octan-1-yl)amino)nicotinamide]: half-maximal inhibition in test [1] (IC50) was put at 9 nM. Further, in test [2], the half-maximal effective concentration (EC50) came to 413 nM.

For `[2H]C([2H])([2H])NC(=O)c1cnc(-c2ccc3cc(C#N)cnn23)cc1NC12CCC(O)(CC1)CC2` [Example 358, 6-(3-cyanopyrrolo[1,2-b]pyridazin-7-yl)-4-((4-hydroxybicyclo[2.2.2]octan-1-yl)amino)-N-(methyl-d3)nicotinamide], the concentration for half-maximal inhibition (IC50) in test [1] came out at 3 nM. Also, in test [2], the EC50 was 122 nM.

Compound `CC(C)(O)[C@H](F)CNC(=O)c1cnc(-c2ccc3cc(C#N)cnn23)cc1Nc1nc(-c2ccc(Oc3ccccc3)cc2)cs1` [Example 359, (R)-6-(3-cyanopyrrolo[1,2-b]pyridazin-7-yl)-N-(2-fluoro-3-hydroxy-3-methylbutyl)-4-((4-(4-phenoxyphenyl)thiazol-2-yl)amino)nicotinamide] yielded an IC50 in test [1] of 614 nM. In addition, the EC50 in test [2] was above 10000 nM.

As for `CC(C)(C)c1cc(Nc2cc(-c3ccc4cc(C#N)cnn34)ncc2C(=O)NC[C@@H](F)C(C)(C)O)on1` [Example 360, (R)-4-((3-(tert-butyl)isoxazol-5-yl)amino)-6-(3-cyanopyrrolo[1,2-b]pyridazin-7-yl)-N-(2-fluoro-3-hydroxy-3-methyl-butyl)nicotinamide], in test [1], the IC50 was determined as 2 nM. Further, in test [2], the concentration giving a half-maximal response (EC50) is above 10000 nM.

In test [1], `CNC(=O)c1cnc(-c2ccc3cc(C#N)cnn23)cc1NC12CCC(O)(CC1)CC2` [Example 361, 6-(3-cyanopyrrolo[1,2-b]pyridazin-7-yl)-4-((4-hydroxybicyclo[2.2.2]octan-1-yl)amino)-N-methylnicotinamide] displayed an IC50 of 1 nM. For the same compound, the concentration giving a half-maximal response (EC50) in test [2] turned out to be 50 nM.

Turning to `CNC(=O)[C@H]1CC[C@@H](Nc2cc(-c3ccc4cc(C#N)cnn34)ncc2C(=O)NC[C@@H](F)C(C)(C)O)CC1` [Example 362, 6-(3-cyanopyrrolo[1,2-b]pyridazin-7-yl)-N-((R)-2-fluoro-3-hydroxy-3-methylbutyl)-4-(((1s,4S)-4-(methylcarbamoyl)cyclo-hexyl)amino)nicotinamide], inhibition in test [1] was half-maximal at 9 nM (IC50). Further, the EC50 in test [2] came to 1430 nM.

Compound `CC(C)(O)[C@H](F)CNC(=O)c1cnc(-c2ccc3cc(C#N)cnn23)cc1Nc1nc(-c2ccccc2)cs1` [Example 363, (R)-6-(3-cyanopyrrolo[1,2-b]pyridazin-7-yl)-N-(2-fluoro-3-hydroxy-3-methylbutyl)-4-((4-phenyl-thiazol-2-yl)amino) nicotinamide] returned an IC50 in test [1] of 5 nM. Besides, in test [2], the half-maximal effective concentration (EC50) is 328 nM.

In turn, `Cc1ccc(-c2cc(Nc3cc(-c4ccc5cc(C#N)cnn45)ncc3C(=O)NC[C@@H](F)C(C)(C)O)n(-c3ccccc3)n2)cc1` [Example 364, (R)-6-(3-cyanopyrrolo[1,2-b]pyridazin-7-yl)-N-(2-fluoro-3-hydroxy-3-methylbutyl)-4-((1-phenyl-3-(p-tolyl)-1H-pyrazol-5-yl)amino)nicotinamide] came in with a concentration for half-maximal inhibition (IC50) in test [1] of 1000 nM. In test [2], the EC50 was above 10000 nM.

`CC(C)(O)[C@H](F)CNC(=O)c1cnc(-c2ccc3cc(C#N)cnn23)cc1Nc1sc2c(c1C(N)=O)CCCC2` [Example 365, (R)-4-((3-carbamoyl-4,5,6,7-tetrahydrobenzo[b]thiophen-2-yl)amino)-6-(3-cyanopyrrolo[1,2-b]pyridazin-7-yl)-N-(2-fluoro-3-hydroxy-3-methylbutyl)nicotinamide] registered an IC50 in test [1] of 4 nM. In test [2], the concentration for a half-maximal effect (EC50) came to 415 nM.

Consider `CN(C)C1CCC(NC(=O)c2cnc(-c3ccc4cc(C#N)cnn34)cc2N[C@H]2CCC[C@@H](O)C2)CC1` (stereo partly drawn) [Example 366, 6-(3-cyanopyrrolo[1,2-b]pyridazin-7-yl)-N-((1r,4S)-4-(dimethylamino)cyclohexyl)-4-(((1S,3R)-3-hydroxycyclohexyl)amino) nicotinamide], for which the half-inhibitory concentration (IC50) in test [1] amounted to 1 nM. Further, the EC50 in test [2] was determined as 162 nM.

In test [1], `CC(C)(O)[C@H](F)CNC(=O)c1cnc(-c2ccc3cc(C#N)cnn23)cc1NC1CCC(=O)NC1` (stereo partly drawn) [Example 367, 6-(3-cyanopyrrolo[1,2-b]pyridazin-7-yl)-N-((R)-2-fluoro-3-hydroxy-3-methylbutyl)-4-((6-oxopiperidin-3-yl)amino)nicotinamide] returned an IC50 of 3 nM. Further, the EC50 in test [2] turned out to be 1560 nM.

`CC(C)(O)[C@H](F)CNC(=O)c1cnc(-c2ccc3cc(C#N)cnn23)cc1N[C@H]1CCC(=O)NC1` [Example 368, 6-(3-cyanopyrrolo[1,2-b]pyridazin-7-yl)-N-((R)-2-fluoro-3-hydroxy-3-methylbutyl)-4-(((S)-6-oxopiperidin-3-yl)amino)nicotinamide] registered an IC50 in test [1] of 5 nM. Moreover, in test [2], the concentration for a half-maximal effect (EC50) came out at 2890 nM.

Consider `CC(C)NC(=O)c1cnc(-c2ccc3cc(C#N)cnn23)cc1NC(C)C` [Example 369, 6-(3-cyanopyrrolo[1,2-b]pyridazin-7-yl)-N-isopropyl-4-(isopropylamino)nicotinamide], for which the half-inhibitory concentration (IC50) in test [1] is 16 nM. The 50% effective concentration (EC50) in test [2] stood at 922 nM.
